Assay results: US7074789B2, “Kinase inhibitors” (Amgen Inc., priority 1999, dated 2006)
Values joined by “and” are separate entries in the source; they are usually repeats but may differ in a detail not shown here. Equal values may be shown once. Read-outs that look alike come from different tables or passages of the source.

What was measured:
Format in all cases: biochemical
Ret-1 = target: T1, Ret-1 (Homo sapiens, UniProt P07949); assay: Kinase inhibition assay (33P transfer), Ret; conditions: Table 6, Ret-1 kinase inhibition class
T1 construct: Kinases are expressed as either kinase domains or full length constructs; made in house

Src = target: T2, Src (Homo sapiens, UniProt P12931); assay: Kinase inhibition assay (33P transfer), Src; conditions: Table 6, Src-1 kinase inhibition class
T2 construct: Kinases are expressed as either kinase domains or full length constructs; made in house
Summary of the method: (§1)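 Activity read as 33P incorporation from ATP into poly(Glu,Tyr) 4:1 or poly(Arg,Ser) 3:1 substrate bound to microtiter plates, measured by scintillation after acid washing. Enzymes were affinity-purified GST or polyHis fusions (kinase domain or full length) from E. coli or baculovirus; IC50 = 50% reduction in labelled phosphate.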

Hck-1 = target: T3, Hck-1 (Homo sapiens, UniProt P08631); assay: Kinase inhibition assay (33P transfer), Hck; conditions: Table 6, Hck-1 kinase inhibition class
T3 construct: Kinases are expressed as either kinase domains or full length constructs; made in house

ErbB2 = target: T4, ErbB2 (Homo sapiens, UniProt P04626); assay: Kinase inhibition assay (33P transfer), ErbB2; conditions: read-out: ErbB2-2
T4 construct: Kinases are expressed as either kinase domains or full length constructs; made in house
Summary of the method: as §1

EGFR = target: T5, EGFR (Homo sapiens, UniProt P00533); assay: Kinase inhibition assay (33P transfer), EGFR; conditions: Table 2, kinase inhibition class; read-out: EGFR-1
T5 construct: Kinases are expressed as either kinase domains or full length constructs; made in house
Summary of the method: as §1

Lyn = target: T6, Lyn (Homo sapiens, UniProt P07948); assay: Kinase inhibition assay (33P transfer), Lyn; conditions: Table 6, Lyn-1 kinase inhibition class
T6 construct: Kinases are expressed as either kinase domains or full length constructs; made in house
Summary of the method: as §1

Kdr = target: T7, Kdr (Homo sapiens, UniProt P35968); assay: Kinase inhibition assay (33P transfer), Kdr; conditions: read-out: KDR-1
T7 construct: Kinases are expressed as either kinase domains or full length constructs; made in house
Summary of the method: (§2)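 Steps: express kinase as GST or polyHistidine fusion in E. coli or High Five cells; optionally co-express or mix with regulatory polypeptides; incubate with 33P-ATP and plate-attached poly(Glu,Tyr) 4:1 or poly(Arg,Ser) 3:1; wash with 0.5% phosphoric acid; count by liquid scintillation.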

Itk = target: T8, Itk (Homo sapiens, UniProt Q08881); assay: Kinase inhibition assay (33P transfer), Itk; conditions: read-out: Itk-1
T8 construct: Kinases are expressed as either kinase domains or full length constructs; made in house
T8 sequence (Q08881 1-620): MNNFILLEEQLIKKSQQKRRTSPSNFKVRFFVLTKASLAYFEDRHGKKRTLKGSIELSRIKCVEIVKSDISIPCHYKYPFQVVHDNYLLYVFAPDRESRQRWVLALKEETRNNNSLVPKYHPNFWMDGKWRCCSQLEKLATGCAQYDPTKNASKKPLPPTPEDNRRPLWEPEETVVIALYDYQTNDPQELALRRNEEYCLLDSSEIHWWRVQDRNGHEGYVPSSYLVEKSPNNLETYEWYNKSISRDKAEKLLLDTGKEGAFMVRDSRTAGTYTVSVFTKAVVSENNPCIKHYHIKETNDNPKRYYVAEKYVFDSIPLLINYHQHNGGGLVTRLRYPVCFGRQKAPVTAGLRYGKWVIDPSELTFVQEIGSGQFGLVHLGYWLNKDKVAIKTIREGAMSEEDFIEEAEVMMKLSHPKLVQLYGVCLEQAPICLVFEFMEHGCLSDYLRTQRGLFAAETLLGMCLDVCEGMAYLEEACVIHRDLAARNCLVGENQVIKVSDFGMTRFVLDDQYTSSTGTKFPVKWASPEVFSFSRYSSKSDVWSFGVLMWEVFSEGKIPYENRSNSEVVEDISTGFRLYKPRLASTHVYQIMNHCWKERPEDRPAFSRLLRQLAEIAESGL
Summary of the method: as §1

Lck = target: T9, Lck (Homo sapiens, UniProt P06239); assay: Kinase inhibition assay (33P transfer), Lck; conditions: read-out: Lck-1
T9 construct: Kinases are expressed as either kinase domains or full length constructs; made in house
Summary of the method: as §2

AKT = target: T10, AKT (Homo sapiens, UniProt Q9Y243); assay: Kinase inhibition assay (33P transfer), AKT; conditions: Table 2, kinase inhibition class; read-out: AKT3-1
T10 construct: Kinases are expressed as either kinase domains or full length constructs; made in house
Summary of the method: as §2

Zap-70 = target: T11, Zap-70 (Homo sapiens, UniProt P43403); assay: Kinase inhibition assay (33P transfer), Zap-70; conditions: read-out: Zap-1
T11 construct: Kinases are expressed as either kinase domains or full length constructs; made in house
T11 sequence (P43403 1-619): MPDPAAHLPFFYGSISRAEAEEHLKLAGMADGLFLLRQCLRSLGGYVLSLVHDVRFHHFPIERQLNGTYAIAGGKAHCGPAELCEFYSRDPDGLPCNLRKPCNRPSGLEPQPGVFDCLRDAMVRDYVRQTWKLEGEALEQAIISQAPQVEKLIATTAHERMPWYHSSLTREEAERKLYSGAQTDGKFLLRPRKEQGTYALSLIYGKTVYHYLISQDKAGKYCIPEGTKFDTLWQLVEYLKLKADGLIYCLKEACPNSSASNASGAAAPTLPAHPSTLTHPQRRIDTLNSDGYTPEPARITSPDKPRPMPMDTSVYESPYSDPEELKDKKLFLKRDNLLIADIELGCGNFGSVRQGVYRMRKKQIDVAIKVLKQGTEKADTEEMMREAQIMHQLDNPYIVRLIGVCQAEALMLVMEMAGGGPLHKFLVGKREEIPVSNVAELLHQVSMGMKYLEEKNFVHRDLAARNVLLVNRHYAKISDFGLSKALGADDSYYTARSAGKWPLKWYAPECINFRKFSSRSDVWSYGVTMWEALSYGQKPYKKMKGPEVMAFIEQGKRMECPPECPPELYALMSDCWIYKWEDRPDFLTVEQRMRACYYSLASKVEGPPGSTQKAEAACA
Summary of the method: as §2

ErbB4 = target: T12, ErbB4 (Homo sapiens, UniProt Q15303); assay: Kinase inhibition assay (33P transfer), ErbB4; conditions: read-out: ErbB4-1
T12 construct: Kinases are expressed as either kinase domains or full length constructs; made in house

Flt-1 = target: T13, Flt-1 (Homo sapiens, UniProt P17948); assay: Kinase inhibition assay (33P transfer), Flt-1
T13 construct: Kinases are expressed as either kinase domains or full length constructs; made in house
Summary of the method: as §1

PDGFRB [1] = target: T14, PDGFRB (Homo sapiens, UniProt P09619); assay: Kinase inhibition assay (33P transfer), PDGFRB; conditions: read-out: PDGFRB-1
T14 construct: Kinases are expressed as either kinase domains or full length constructs; made in house

FGFR1 = target: T15, FGFR1 (Homo sapiens, UniProt P11362); assay: Kinase inhibition assay (33P transfer), FGFR1; conditions: read-out: FGFR1-1
T15 construct: Kinases are expressed as either kinase domains or full length constructs; made in house

IGFR-1 = target: T16, IGFR-1 (Homo sapiens, UniProt P08069); assay: Kinase inhibition assay, IGFR-1 (Table 2); conditions: Table 2, kinase inhibition class
T16 construct: Kinases are expressed as either kinase domains or full length constructs; made in house

Fyn = target: T17, Fyn (Homo sapiens, UniProt P06241); assay: Kinase inhibition assay (33P transfer), Fyn; conditions: read-out: Fyn-1
T17 construct: Kinases are expressed as either kinase domains or full length constructs; made in house
Summary of the method: as §1

c-Met = target: T18, c-Met (Homo sapiens, UniProt P08581); assay: Kinase inhibition assay (33P transfer), c-Met; conditions: Table 2, kinase inhibition class; read-out: Met-1
T18 construct: Kinases are expressed as either kinase domains or full length constructs; made in house
Summary of the method: as §1

PDGFRB [2] = target: T14, PDGFRB; assay: Kinase inhibition assay (33P transfer), PDGFRB; conditions: read-out: PDGFRB-1; remark: listed apart in the source

T17 sequence (P06241 whole entry, species assumed, the tested form may be a part): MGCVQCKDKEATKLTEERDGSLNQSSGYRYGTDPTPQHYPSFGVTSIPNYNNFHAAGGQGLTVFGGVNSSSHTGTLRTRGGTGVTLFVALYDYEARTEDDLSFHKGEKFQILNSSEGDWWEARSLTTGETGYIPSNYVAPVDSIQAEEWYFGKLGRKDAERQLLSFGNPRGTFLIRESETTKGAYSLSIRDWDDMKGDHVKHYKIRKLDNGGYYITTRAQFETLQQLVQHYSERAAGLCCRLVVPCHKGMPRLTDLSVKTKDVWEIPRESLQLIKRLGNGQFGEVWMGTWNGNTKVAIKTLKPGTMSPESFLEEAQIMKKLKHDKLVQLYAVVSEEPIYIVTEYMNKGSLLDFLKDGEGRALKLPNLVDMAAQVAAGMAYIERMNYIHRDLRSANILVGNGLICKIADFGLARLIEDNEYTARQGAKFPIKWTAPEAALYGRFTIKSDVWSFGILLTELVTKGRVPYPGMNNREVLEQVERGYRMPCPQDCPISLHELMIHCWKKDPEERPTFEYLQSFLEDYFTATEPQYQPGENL
T14 sequence (P09619 33-1106, species assumed): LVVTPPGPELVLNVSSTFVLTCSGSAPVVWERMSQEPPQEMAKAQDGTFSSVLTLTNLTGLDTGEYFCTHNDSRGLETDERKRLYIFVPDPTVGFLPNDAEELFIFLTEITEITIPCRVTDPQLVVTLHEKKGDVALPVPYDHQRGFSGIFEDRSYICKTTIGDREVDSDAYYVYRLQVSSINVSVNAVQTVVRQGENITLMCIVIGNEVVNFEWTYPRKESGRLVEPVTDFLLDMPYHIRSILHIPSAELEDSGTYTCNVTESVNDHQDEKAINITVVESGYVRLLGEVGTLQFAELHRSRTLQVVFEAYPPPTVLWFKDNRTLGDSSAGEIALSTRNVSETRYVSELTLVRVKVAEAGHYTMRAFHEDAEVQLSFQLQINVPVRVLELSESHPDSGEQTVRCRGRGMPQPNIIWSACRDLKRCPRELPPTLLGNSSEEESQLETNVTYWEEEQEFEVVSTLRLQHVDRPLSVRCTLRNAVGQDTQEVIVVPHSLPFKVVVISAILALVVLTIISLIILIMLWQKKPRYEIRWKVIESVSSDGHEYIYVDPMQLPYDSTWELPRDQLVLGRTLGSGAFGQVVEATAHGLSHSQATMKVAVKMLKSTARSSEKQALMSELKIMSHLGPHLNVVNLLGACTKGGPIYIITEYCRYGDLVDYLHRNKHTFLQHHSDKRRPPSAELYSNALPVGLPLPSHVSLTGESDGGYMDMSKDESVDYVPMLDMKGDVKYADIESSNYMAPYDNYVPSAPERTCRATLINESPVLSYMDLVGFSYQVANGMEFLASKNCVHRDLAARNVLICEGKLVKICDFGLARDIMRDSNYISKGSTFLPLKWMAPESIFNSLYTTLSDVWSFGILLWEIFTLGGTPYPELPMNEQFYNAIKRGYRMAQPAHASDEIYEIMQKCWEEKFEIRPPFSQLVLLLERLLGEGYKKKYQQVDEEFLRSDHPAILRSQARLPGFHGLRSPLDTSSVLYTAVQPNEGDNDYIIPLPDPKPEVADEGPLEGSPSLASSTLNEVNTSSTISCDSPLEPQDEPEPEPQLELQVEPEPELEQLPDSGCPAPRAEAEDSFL
T18 sequence (P08581 25-1390): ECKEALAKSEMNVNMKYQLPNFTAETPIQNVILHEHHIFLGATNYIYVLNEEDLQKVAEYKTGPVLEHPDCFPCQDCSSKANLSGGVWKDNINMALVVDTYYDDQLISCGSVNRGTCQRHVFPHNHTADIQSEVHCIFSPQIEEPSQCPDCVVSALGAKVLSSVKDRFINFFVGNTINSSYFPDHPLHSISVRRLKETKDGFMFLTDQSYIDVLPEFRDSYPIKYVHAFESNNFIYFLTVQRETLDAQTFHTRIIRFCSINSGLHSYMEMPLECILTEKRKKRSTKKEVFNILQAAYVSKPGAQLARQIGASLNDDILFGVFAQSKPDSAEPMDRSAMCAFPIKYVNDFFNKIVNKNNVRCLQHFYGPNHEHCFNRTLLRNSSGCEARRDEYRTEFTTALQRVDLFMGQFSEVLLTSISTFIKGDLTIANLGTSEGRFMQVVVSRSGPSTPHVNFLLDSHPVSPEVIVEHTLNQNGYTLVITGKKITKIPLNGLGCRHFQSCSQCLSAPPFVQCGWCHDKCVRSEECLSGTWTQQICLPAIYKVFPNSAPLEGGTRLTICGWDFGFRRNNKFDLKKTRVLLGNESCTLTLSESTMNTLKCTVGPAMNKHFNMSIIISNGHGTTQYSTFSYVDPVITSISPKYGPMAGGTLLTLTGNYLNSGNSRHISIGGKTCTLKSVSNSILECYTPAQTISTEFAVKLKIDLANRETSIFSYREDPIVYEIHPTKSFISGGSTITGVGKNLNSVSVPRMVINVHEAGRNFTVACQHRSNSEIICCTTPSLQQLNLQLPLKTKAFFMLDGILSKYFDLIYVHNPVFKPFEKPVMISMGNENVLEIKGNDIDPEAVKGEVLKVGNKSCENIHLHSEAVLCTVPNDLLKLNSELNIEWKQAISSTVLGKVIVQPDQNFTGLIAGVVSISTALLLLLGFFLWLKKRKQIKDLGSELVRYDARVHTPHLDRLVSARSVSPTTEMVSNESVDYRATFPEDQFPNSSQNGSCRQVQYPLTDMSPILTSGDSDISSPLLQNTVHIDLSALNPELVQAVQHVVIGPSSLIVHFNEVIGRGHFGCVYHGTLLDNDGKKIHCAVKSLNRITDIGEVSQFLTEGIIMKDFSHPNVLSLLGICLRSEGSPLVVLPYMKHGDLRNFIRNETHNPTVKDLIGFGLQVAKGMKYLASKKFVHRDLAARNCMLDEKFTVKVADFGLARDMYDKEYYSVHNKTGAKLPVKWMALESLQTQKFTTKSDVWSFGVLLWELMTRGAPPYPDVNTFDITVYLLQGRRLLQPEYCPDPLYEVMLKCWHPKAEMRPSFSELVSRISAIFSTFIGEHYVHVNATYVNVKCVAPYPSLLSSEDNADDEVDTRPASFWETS
T15 sequence (P11362 22-822, species assumed): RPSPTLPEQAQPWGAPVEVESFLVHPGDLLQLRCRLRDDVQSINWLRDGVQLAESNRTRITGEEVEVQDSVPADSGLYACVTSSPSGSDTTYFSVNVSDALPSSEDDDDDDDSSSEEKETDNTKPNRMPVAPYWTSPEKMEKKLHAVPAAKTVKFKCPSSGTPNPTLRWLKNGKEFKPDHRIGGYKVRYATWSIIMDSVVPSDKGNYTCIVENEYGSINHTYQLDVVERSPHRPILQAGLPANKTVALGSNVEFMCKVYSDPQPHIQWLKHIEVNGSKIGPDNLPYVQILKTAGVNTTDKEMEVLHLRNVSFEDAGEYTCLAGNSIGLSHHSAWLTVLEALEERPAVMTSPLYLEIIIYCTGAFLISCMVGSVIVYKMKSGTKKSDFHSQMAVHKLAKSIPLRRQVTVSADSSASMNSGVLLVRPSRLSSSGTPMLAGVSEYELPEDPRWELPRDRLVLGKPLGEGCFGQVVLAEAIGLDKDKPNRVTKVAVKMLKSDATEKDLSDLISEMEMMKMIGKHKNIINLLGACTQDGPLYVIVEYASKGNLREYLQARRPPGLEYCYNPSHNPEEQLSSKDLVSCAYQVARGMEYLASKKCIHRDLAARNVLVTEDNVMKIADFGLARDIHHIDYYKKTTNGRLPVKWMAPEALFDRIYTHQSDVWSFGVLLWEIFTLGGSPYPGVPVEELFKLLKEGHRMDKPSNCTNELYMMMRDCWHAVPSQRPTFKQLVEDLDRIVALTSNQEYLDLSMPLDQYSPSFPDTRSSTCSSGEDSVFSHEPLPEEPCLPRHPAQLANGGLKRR
T1 sequence (P07949 29-1114): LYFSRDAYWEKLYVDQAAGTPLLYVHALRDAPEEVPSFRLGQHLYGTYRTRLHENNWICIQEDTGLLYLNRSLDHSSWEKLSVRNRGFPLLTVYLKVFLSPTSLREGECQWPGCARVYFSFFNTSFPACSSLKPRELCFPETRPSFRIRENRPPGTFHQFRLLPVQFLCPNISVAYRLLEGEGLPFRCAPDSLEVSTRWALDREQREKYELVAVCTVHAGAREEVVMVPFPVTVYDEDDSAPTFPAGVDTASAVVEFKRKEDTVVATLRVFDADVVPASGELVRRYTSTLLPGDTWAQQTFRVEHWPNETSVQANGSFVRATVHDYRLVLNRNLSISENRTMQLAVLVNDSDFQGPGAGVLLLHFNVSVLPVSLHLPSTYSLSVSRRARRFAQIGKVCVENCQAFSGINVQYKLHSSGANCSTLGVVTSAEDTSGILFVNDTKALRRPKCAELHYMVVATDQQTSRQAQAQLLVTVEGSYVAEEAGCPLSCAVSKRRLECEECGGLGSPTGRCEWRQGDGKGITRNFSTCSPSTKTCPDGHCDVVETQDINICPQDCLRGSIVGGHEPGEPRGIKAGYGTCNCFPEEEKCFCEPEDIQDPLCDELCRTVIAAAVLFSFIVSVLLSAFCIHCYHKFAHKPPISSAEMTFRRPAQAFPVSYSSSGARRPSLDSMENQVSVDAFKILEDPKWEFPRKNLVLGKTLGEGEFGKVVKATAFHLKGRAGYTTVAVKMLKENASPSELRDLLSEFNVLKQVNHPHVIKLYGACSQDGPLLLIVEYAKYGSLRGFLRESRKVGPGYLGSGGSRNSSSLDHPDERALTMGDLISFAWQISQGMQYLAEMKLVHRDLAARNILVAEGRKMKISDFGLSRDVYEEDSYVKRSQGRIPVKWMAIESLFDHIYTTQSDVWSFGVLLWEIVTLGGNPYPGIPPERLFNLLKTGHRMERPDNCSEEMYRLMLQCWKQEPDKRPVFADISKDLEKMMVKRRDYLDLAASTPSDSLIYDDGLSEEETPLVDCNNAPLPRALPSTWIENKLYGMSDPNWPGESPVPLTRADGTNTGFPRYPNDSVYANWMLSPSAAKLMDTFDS

SMILES	IC50 (Ret-1) [µM]	IC50 (Src) [µM]	IC50 (Hck-1) [µM]	IC50 (ErbB2)	IC50 (EGFR)	IC50 (Lyn) [µM]	IC50 (Kdr)	IC50 (Itk) [µM]	IC50 (Lck) [µM]	IC50 (AKT) [µM]	IC50 (Zap-70) [µM]	IC50 (ErbB4) [µM]	IC50 (Flt-1) [µM]	IC50 (PDGFRB [1]) [µM]	IC50 (FGFR1) [µM]	IC50 (IGFR-1)	IC50 (Fyn) [µM]	IC50 (c-Met)	IC50 (PDGFRB [2])
CCOC(=O)C(Nc1nc2ccccc2n1-c1ncnc(Nc2cc(OC)c(OC)c(OC)c2)n1)c1ccccc1 (stereo not shown) [Compound 585]	< 0.72	> 8.1	–	4.32 to 6.3 µM	> 8.1 µM	> 8.1	< 0.72 µM	> 8.1	4.32 to 6.3	> 8.1	> 8.1	> 8.1	0.72 to 4.32	–	< 0.72	> 8.1 µM	> 8.1	6.3 to 8.1 µM	0.72 to 4.32 µM
COc1cc(Nc2ncnc(-n3c(NC4CCCc5ccccc54)nc4ccccc43)n2)cc(OC)c1OC (stereo not shown) [Compound 587]	< 0.764	> 8.59	–	0.764 to 4.58 µM and 4.58 to 6.68 µM	4.58 to 6.68 µM and 6.68 to 8.59 µM	0.764 to 4.58	< 0.764 µM and 0.764 to 4.58 µM	> 8.59	0.764 to 4.58	> 8.59	> 8.59	0.764 to 4.58	0.764 to 4.58	–	< 0.764	6.68 to 8.59 µM and > 8.59 µM	> 8.59	6.68 to 8.59 µM and > 8.59 µM	0.764 to 4.58 µM and > 8.59 µM
COc1cc(Nc2ncnc(-n3c(NC(CCO)c4ccccc4)nc4ccccc43)n2)cc(OC)c1OC (stereo not shown) [Compound 591]	< 0.758	< 0.758	0.758 to 4.55	4.55 to 6.63 µM	> 8.53 µM	0.758 to 4.55	< 0.758 µM	> 8.53	< 0.758	> 8.53	> 8.53	6.63 to 8.53	< 0.758	< 0.758	< 0.758	> 8.53 µM	< 0.758	> 8.53 µM	–

Further lines, results first:

IC50 (Ret-1) [µM]	IC50 (Src) [µM]	IC50 (Hck-1) [µM]	IC50 (ErbB2)	IC50 (EGFR)	IC50 (Lyn) [µM]	IC50 (Kdr)	IC50 (Itk) [µM]	IC50 (Lck) [µM]	IC50 (AKT) [µM]	IC50 (Zap-70) [µM]	IC50 (ErbB4) [µM]	IC50 (Flt-1) [µM]	IC50 (PDGFRB [1]) [µM]	IC50 (FGFR1) [µM]	IC50 (IGFR-1)	IC50 (Fyn) [µM]	IC50 (c-Met)	IC50 (PDGFRB [2])	SMILES
< 0.776	> 8.73	> 8.73	> 8.73 µM	> 8.73 µM	0.776 to 4.66	< 0.776 µM	> 8.73	0.776 to 4.66	> 8.73	> 8.73	> 8.73	0.776 to 4.66	< 0.776	< 0.776	> 8.73 µM	> 8.73	> 8.73 µM	–	COc1cc(Nc2ncnc(-n3c(NC(C)c4ccc(F)cc4)nc4ccccc43)n2)cc(OC)c1OC (stereo not shown) [Compound 605]
< 0.958	0.958 to 5.75	0.958 to 5.75	0.958 to 5.75 µM	< 0.958 µM	< 0.958	< 0.958 µM	> 10.8	< 0.958	> 10.8	> 10.8	0.958 to 5.75	8.38 to 10.8	0.958 to 5.75	0.958 to 5.75	> 10.8 µM	0.958 to 5.75	> 10.8 µM	–	COc1cc(Nc2ncnc(N(C)c3cccc4ccccc34)n2)cc(OC)c1OC [Compound 607]
< 0.995	0.995 to 5.97	8.71 to 11.2	< 0.995 µM	< 0.995 µM	0.995 to 5.97	< 0.995 µM	> 11.2	< 0.995	> 11.2	> 11.2	8.71 to 11.2	0.995 to 5.97	0.995 to 5.97	0.995 to 5.97	0.995 to 5.97 µM	0.995 to 5.97	0.995 to 5.97 µM	–	COc1cc(Nc2ncnc(N(C)c3cccc(Cl)c3)n2)cc(OC)c1OC [Compound 603]
